Measurements reported in the supplement of paper PMC10307832.

Legend:
Experiment in all cases: relative viability (nuclei count vs DMSO), 5 days (fraction); higher = more cells survive
AGI-6780 + Navitoclax = compound: O=C(Nc1cccc(C(F)(F)F)c1)Nc1cc(S(=O)(=O)NC2CC2)ccc1-c1ccsc1 [AGI-6780] + CC1(C)CCC(c2ccc(Cl)cc2)=C(CN2CCN(c3ccc(C(=O)NS(=O)(=O)c4ccc(N[C@H](CCN5CCOCC5)CSc5ccccc5)c(S(=O)(=O)C(F)(F)F)c4)cc3)CC2)C1 [Navitoclax] (partner 0.5 µM)
Summary of the method: (§1)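 Relative viability equals treated-well nuclei counts divided by vehicle-well nuclei counts. Counts came from 4× images of lung cancer cell lines grown in 1536-well plates for 5 days after pin-tool dosing on the day after seeding. Dosing used one drug alone or a fixed anchor-drug dose plus five library-drug doses (not always all listed) in √10 steps, and values are medians of duplicate plates.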

AGI-6780 + Linsitinib = compound: O=C(Nc1cccc(C(F)(F)F)c1)Nc1cc(S(=O)(=O)NC2CC2)ccc1-c1ccsc1 [AGI-6780] + C[C@]1(O)C[C@@H](c2nc(-c3ccc4ccc(-c5ccccc5)nc4c3)c3c(N)nccn32)C1 [Linsitinib] (partner 1 µM)
Summary of the method: as §1

AGI-6780 + Alpelisib = compound: O=C(Nc1cccc(C(F)(F)F)c1)Nc1cc(S(=O)(=O)NC2CC2)ccc1-c1ccsc1 [AGI-6780] + Cc1nc(NC(=O)N2CCC[C@H]2C(N)=O)sc1-c1ccnc(C(C)(C)C(F)(F)F)c1 [Alpelisib] (partner 2 µM)
Summary of the method: as §1

AGI-6780 + Vorinostat = compound: O=C(Nc1cccc(C(F)(F)F)c1)Nc1cc(S(=O)(=O)NC2CC2)ccc1-c1ccsc1 [AGI-6780] + O=C(CCCCCCC(=O)Nc1ccccc1)NO [Vorinostat] (partner 1 µM)
Summary of the method: as §1

| Cell Line | relative viability (AGI-6780 + Navitoclax; first compound 0.08 µM) | relative viability (AGI-6780 + Navitoclax; first compound 0.253 µM) | relative viability (AGI-6780 + Navitoclax; first compound 0.8 µM) | relative viability (AGI-6780 + Navitoclax; first compound 2.53 µM) | relative viability (AGI-6780 + Navitoclax; first compound 8 µM) | relative viability (AGI-6780 + Linsitinib; first compound 0.08 µM) | relative viability (AGI-6780 + Linsitinib; first compound 0.253 µM) | relative viability (AGI-6780 + Linsitinib; first compound 0.8 µM) | relative viability (AGI-6780 + Linsitinib; first compound 2.53 µM) | relative viability (AGI-6780 + Linsitinib; first compound 8 µM) | relative viability (AGI-6780 + Alpelisib; first compound 0.08 µM) | relative viability (AGI-6780 + Alpelisib; first compound 0.253 µM) | relative viability (AGI-6780 + Alpelisib; first compound 0.8 µM) | relative viability (AGI-6780 + Alpelisib; first compound 2.53 µM) | relative viability (AGI-6780 + Alpelisib; first compound 8 µM) | relative viability (AGI-6780 + Vorinostat; first compound 0.08 µM) | relative viability (AGI-6780 + Vorinostat; first compound 0.253 µM) | relative viability (AGI-6780 + Vorinostat; first compound 0.8 µM) | relative viability (AGI-6780 + Vorinostat; first compound 2.53 µM) | relative viability (AGI-6780 + Vorinostat; first compound 8 µM) |
| --- | --- | --- | --- | --- | --- | --- | --- | --- | --- | --- | --- | --- | --- | --- | --- | --- | --- | --- | --- | --- |
| LOU-NH91 | 0.718 | 0.735 | 0.698 | 0.575 | 0.775 | 0.99 | 0.921 | 0.857 | 0.901 | 0.93 | 0.743 | 0.699 | 0.685 | 0.646 | 0.721 | 0.954 | 0.92 | 0.953 | 0.926 | 0.913 |
| HCC-15 | 0.727 | 0.698 | 0.743 | 0.641 | 0.684 | 0.897 | 0.867 | 0.941 | 0.777 | 0.821 | 0.883 | 0.91 | 0.939 | 0.712 | 0.919 | 0.917 | 0.88 | 0.875 | 0.832 | 0.828 |
| HCC-827 | 1.09 | 1.06 | 1 | 1.01 | 0.935 | 1.01 | 0.96 | 0.872 | 0.989 | 0.942 | 0.937 | 0.971 | 0.986 | 0.952 | 0.955 | 0.983 | 0.849 | 0.896 | 0.802 | 1 |
| NCI-H1703 | 1.49 | 1.21 | 1.25 | 1.1 | 1.25 | 1.18 | 0.978 | 0.736 | 0.559 | 0.166 | 0.377 | 0.278 | 0.424 | 0.344 | 0.251 |  |  |  |  |  |
| NCI-H2405 | 0.8 | 0.9 | 0.725 |  | 0.836 | 0.931 | 0.933 | 0.687 |  | 0.845 | 0.895 | 0.824 | 0.506 |  | 0.767 |  | 0.975 | 0.943 | 0.937 | 0.954 |
| PC-3 [JPC-3] | 0.898 | 0.872 | 0.77 | 0.752 | 0.774 | 0.995 | 0.952 | 0.904 | 0.926 | 0.953 | 1.02 | 1.02 | 0.976 | 0.983 | 1.02 |  | 0.866 | 1.08 | 0.967 | 0.731 |
| NCI-H2085 | 1.15 | 1.07 | 1.1 | 1.08 | 1.2 | 1.01 | 0.87 | 0.781 | 0.921 | 1.07 | 0.965 | 0.978 | 0.976 | 0.949 | 0.885 | 0.787 | 0.832 | 0.841 | 0.865 | 0.727 |
| 201T | 1.26 | 1.19 | 1.24 | 1.18 | 1.26 | 1.06 | 1.06 | 1.02 | 0.993 | 1.01 | 1.11 | 1.05 | 0.991 | 0.941 | 1.01 | 0.991 | 0.98 | 1.06 | 0.951 | 1.04 |
| NCI-H1975 | 1.15 | 1 | 1.1 | 1.02 | 1.03 | 1.11 | 0.986 | 0.912 | 1.07 | 0.969 | 0.71 | 0.62 | 0.653 | 0.526 | 0.523 | 0.711 | 0.742 | 0.66 | 0.697 | 0.694 |
| NCI-H2023 | 1 | 1.06 | 1.02 | 0.989 | 0.919 | 0.711 | 0.677 | 0.697 | 0.648 | 0.698 | 0.674 | 0.595 | 0.596 | 0.447 | 0.617 | 0.705 | 0.818 | 0.781 | 0.541 | 0.648 |
| BEN | 0.0592 | 0.0703 | 0.0549 |  | 0.0845 | 0.894 | 0.845 | 1.07 |  | 0.971 | 1.04 | 0.966 | 1.36 |  | 0.914 | 0.62 | 0.539 | 0.692 |  | 0.629 |
| RERF-LC-KJ | 1.18 | 1.08 | 1.16 | 0.834 | 0.911 | 0.863 | 1 | 0.837 | 0.822 | 0.845 | 0.784 | 0.824 | 0.779 | 0.672 | 0.75 | 0.784 | 0.724 | 0.795 | 0.596 | 0.697 |
| SK-MES-1 | 1.31 | 1.22 | 1.09 | 1.21 | 1.28 | 1.08 | 1.06 | 0.92 | 0.984 | 1.09 | 0.877 | 0.926 | 0.898 | 0.894 | 0.789 | 1.21 | 1.17 | 1 | 1.03 | 0.994 |
| PC-14 | 1.06 | 0.967 | 0.849 | 1.01 | 0.952 | 0.983 | 0.925 | 0.832 | 0.903 | 0.937 | 0.947 | 0.986 | 0.944 | 0.913 | 0.961 | 0.919 | 0.708 | 0.845 | 0.779 | 0.799 |
| NCI-H1437 | 1.19 | 1.06 | 1.12 | 1.07 | 0.966 | 1.11 | 1.01 | 1.07 | 1.03 | 0.983 | 1.07 | 0.888 | 1.04 | 0.882 | 0.885 | 0.818 | 0.856 | 0.827 | 0.751 | 0.636 |
| NCI-H1993 | 1.1 | 0.986 | 0.903 | 0.667 | 1.14 | 0.808 | 0.801 | 0.765 | 0.703 | 0.682 | 0.788 | 0.675 | 0.736 | 0.653 | 0.693 | 1.21 | 0.811 | 0.853 |  | 0.784 |
